Experiments:
Test in all cases: relative viability (nuclei count vs DMSO), 5 days (fraction); higher = more cells survive
[1] = compound: O=C(C[C@H]1NCCC[C@@H]1O)Cn1cnc2cc(Br)c(Cl)cc2c1=O (racemic) [Halofuginone] + Cc1nc(Nc2ncc(C(=O)Nc3c(C)cccc3Cl)s2)cc(N2CCN(CCO)CC2)n1 [Dasatinib] (partner 0.075 µM)
How it was run: (§1)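 Five library-drug doses in √10 steps were combined with a fixed anchor-drug dose, or a single drug was given alone, by pin tool to lung cancer cell lines in 1536-well plates the day after seeding. Nuclei were stained and counted after 5 days. Relative viability is the nuclei count in treated wells over that in vehicle wells, taken as the median of duplicate plates.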

[2] = compound: O=C(C[C@H]1NCCC[C@@H]1O)Cn1cnc2cc(Br)c(Cl)cc2c1=O (racemic) [Halofuginone] + Cc1nc(NC(=O)N2CCC[C@H]2C(N)=O)sc1-c1ccnc(C(C)(C)C(F)(F)F)c1 [Alpelisib] (partner 2 µM)
How it was run: as §1

[3] = compound: COc1cc2c(Oc3ccc4[nH]c(C)cc4c3F)ncnc2cc1OCCCN1CCCC1 [Cediranib] + O=C(CCCCCCC(=O)Nc1ccccc1)NO [Vorinostat] (partner 1 µM)
How it was run: as §1

[4] = compound: COc1cc2c(Oc3ccc4[nH]c(C)cc4c3F)ncnc2cc1OCCCN1CCCC1 [Cediranib] + C[C@]1(O)C[C@@H](c2nc(-c3ccc4ccc(-c5ccccc5)nc4c3)c3c(N)nccn32)C1 [Linsitinib] (partner 1 µM)
How it was run: as §1

Row | Cell Line | relative viability ([1]; first compound 0.001 µM) | relative viability ([1]; first compound 0.003162 µM) | relative viability ([1]; first compound 0.01 µM) | relative viability ([1]; first compound 0.03162 µM) | relative viability ([1]; first compound 0.1 µM) | relative viability ([2]; first compound 0.001 µM) | relative viability ([2]; first compound 0.003162 µM) | relative viability ([2]; first compound 0.01 µM) | relative viability ([2]; first compound 0.03162 µM) | relative viability ([2]; first compound 0.1 µM) | relative viability ([3]; first compound 0.04 µM) | relative viability ([3]; first compound 0.1265 µM) | relative viability ([3]; first compound 0.4 µM) | relative viability ([3]; first compound 1.265 µM) | relative viability ([3]; first compound 4 µM) | relative viability ([4]; first compound 0.04 µM) | relative viability ([4]; first compound 0.1265 µM) | relative viability ([4]; first compound 0.4 µM) | relative viability ([4]; first compound 1.265 µM) | relative viability ([4]; first compound 4 µM)
1 | NCI-H1651 | 0.526 | 0.494 | 0.377 | 0.258 | 0.162 | 0.906 | 0.9 | 0.889 | 0.66 | 0.278 | 0.518 | 0.591 | 0.58 | 0.53 | 0.555 | 0.888 | 1.11 | 0.991 | 0.95 | 1.04
2 | NCI-H1666 | 0.812 | 0.802 | 0.753 | 0.766 | 0.664 | 0.936 | 0.791 | 0.857 | 0.92 | 0.607 | 1.18 | 1.06 | 0.908 | 0.955 | 1.03 | 0.865 | 0.903 | 0.729 | 0.885 | 0.877
3 | NCI-H1734 | 0.52 | 0.558 | 0.436 | 0.449 | 0.293 | 0.685 | 0.679 | 0.674 | 0.612 | 0.452 | 0.718 | 0.805 | 0.77 | 0.768 | 0.911 | 0.932 | 0.847 | 0.928 | 0.776 | 1
4 | NCI-H1755 | 0.514 | 0.435 | 0.465 | 0.422 | 0.291 | 0.866 | 0.937 | 0.891 | 0.923 | 0.588 | 0.808 | 0.65 | 0.683 | 0.763 | 0.762 | 0.997 | 1.06 | 0.967 | 0.972 | 1.03
5 | NCI-H1793 | 0.374 | 0.37 | 0.418 | 0.468 | 0.296 | 0.687 | 0.666 | 0.623 | 0.722 | 0.396 | 0.954 | 0.679 | 0.67 | 0.49 | 0.797 | 0.903 | 0.935 | 0.747 | – | 0.968
6 | NCI-H1915 | 0.308 | 0.332 | 0.322 | 0.294 | 0.23 | 1.08 | 1.11 | 1.05 | 0.921 | 0.929 | 0.5 | 0.426 | 0.485 | 0.501 | 0.544 | 1.09 | 1.01 | 1.07 | 1.04 | 1.16
7 | NCI-H1944 | 0.229 | 0.236 | 0.209 | 0.207 | 0.155 | 0.829 | 0.85 | 0.827 | 0.839 | 0.68 | 0.588 | 0.694 | 0.502 | 0.53 | 0.643 | 1.38 | 1.45 | 1.14 | 1.02 | 1.12
8 | NCI-H1975 | 0.375 | 0.324 | 0.348 | 0.231 | 0.117 | 0.684 | 0.674 | 0.719 | 0.302 | 0.115 | 0.757 | 0.716 | 0.704 | 0.669 | 0.785 | 1.1 | 1.16 | 1 | 0.955 | 0.928
9 | NCI-H1993 | 0.619 | 0.558 | 0.562 | 0.532 | 0.434 | 0.696 | 0.677 | 0.664 | 0.711 | 0.57 | – | 0.633 | 0.727 | 0.567 | 0.688 | 0.774 | 0.751 | 0.701 | 0.648 | 0.818
10 | NCI-H2009 | 0.313 | 0.385 | 0.289 | 0.216 | 0.151 | 1.23 | 1.2 | 1.12 | 0.969 | 0.393 | 0.736 | 0.672 | 0.715 | 0.736 | 0.717 | 1.2 | 1.18 | 1.18 | 1.19 | 1.16
11 | NCI-H2023 | 0.649 | 0.609 | 0.507 | 0.241 | 0.0614 | 0.645 | 0.624 | 0.519 | 0.281 | 0.147 | 0.739 | 0.4 | 0.545 | 0.723 | 0.9 | 0.656 | 0.641 | 0.638 | 0.588 | 0.765
12 | NCI-H2085 | 0.252 | 0.226 | 0.259 | 0.269 | 0.237 | 0.901 | 0.98 | 0.943 | 0.873 | 0.623 | 0.832 | 0.721 | 0.746 | 0.832 | 0.769 | 1.01 | 0.941 | 0.898 | 0.872 | 0.926
13 | NCI-H2087 | 0.834 | 1.16 | 0.9 | 0.808 | 0.522 | 1.12 | 0.98 | 1.14 | 0.935 | 0.612 | 0.939 | 0.694 | 0.474 | 0.671 | 0.63 | 0.995 | 1.03 | 0.921 | 0.843 | 0.959
14 | NCI-H2126 | 0.661 | 0.663 | 0.635 | 0.562 | 0.405 | 0.71 | 0.74 | 0.696 | 0.734 | 0.698 | 0.738 | 0.578 | 0.725 | 0.614 | 0.81 | 0.769 | 0.708 | 0.683 | 0.592 | 0.722
15 | NCI-H2228 | 0.622 | 0.488 | 0.48 | 0.236 | 0.0746 | 0.797 | 0.877 | 0.762 | 0.399 | 0.151 | 0.719 | 0.763 | 0.633 | 0.563 | 0.529 | 0.873 | 0.955 | 0.8 | 0.536 | 1.03
16 | NCI-H2347 | 0.299 | 0.308 | 0.334 | 0.281 | 0.194 | 1.07 | 1.07 | 1.09 | 1.02 | 0.876 | 0.693 | 0.621 | 0.538 | 0.577 | 0.512 | 0.979 | 0.86 | 0.919 | 1 | 0.903

Source: the supplement of paper PMC10307832
